# In paper PMC11354698, “Functional Characterization of an Odorant Receptor Expressed in Newly Hatched Larvae of Fall Armyworm Spodoptera frugiperda” (Insects, 2024):
# Molecular target: T1, SfruOR40/Orco (SfruOR40 co-expressed with SfruOrco) (Spodoptera frugiperda, UniProt A0A9R0D2T2)
# T1 construct: gene LOC118267896; full-length ORF of SfruOR40 (395 residues); with Odorant receptor coreceptor
# T1 sequence (A0A9R0D2T2 1-395): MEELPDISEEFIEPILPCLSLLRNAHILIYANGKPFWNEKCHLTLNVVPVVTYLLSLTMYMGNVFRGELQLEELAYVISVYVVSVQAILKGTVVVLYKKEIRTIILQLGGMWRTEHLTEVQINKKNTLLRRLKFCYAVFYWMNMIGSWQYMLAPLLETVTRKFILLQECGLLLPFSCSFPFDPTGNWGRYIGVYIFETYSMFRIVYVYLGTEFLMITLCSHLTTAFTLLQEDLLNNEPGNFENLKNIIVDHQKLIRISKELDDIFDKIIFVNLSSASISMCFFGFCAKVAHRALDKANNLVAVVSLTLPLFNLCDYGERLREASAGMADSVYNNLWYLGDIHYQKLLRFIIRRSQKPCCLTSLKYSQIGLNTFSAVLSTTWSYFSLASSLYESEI
# T1 sequence (A0A9F1UC78 1-473 partner): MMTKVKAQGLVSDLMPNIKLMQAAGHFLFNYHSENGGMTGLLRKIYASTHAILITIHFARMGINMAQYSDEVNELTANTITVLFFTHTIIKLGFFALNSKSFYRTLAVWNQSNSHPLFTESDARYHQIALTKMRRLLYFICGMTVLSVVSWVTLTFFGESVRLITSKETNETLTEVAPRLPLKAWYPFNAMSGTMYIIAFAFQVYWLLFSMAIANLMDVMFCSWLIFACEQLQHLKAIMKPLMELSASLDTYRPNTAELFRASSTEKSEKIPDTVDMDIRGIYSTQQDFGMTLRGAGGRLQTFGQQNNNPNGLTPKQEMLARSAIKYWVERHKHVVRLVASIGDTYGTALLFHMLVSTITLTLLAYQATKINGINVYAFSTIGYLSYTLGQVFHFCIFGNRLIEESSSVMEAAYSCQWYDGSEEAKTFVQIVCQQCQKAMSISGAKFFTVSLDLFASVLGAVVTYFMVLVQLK
# Experiment: two-electrode voltage clamp, Xenopus oocytes
# Assay type: cell-based
# Settings: agonist, 10^-4 M odorant, -80 mV, Ringer's buffer pH 7.6, 0.1% DMSO, n = 7
row,SMILES,mean current amplitude at 10^-4 M
1,C=C1CC/C=C(\C)CC[C@@H]2[C@@H]1CC2(C)C [(−)-trans-Caryophyllene],111 nA
2,C/C1=C\CC/C(C)=C/CC(C)(C)/C=C/C1 [α-Humulene],206 nA
3,C=C1CC[C@H]2O[C@]2(C)CC[C@@H]2[C@@H]1CC2(C)C [(−)-trans-Caryophyllene oxide],90 nA
